In test [1] the target is T1, human S1P1 (EDG-1) receptor (Homo sapiens, UniProt P21453).
T1 construct: c-myc (N); expressed in transfected cells
The test can be described thus: S1P1 (EDG-1) GTP[γ-35S] binding assay, membranes of CHO cells. Format: biochemical. Particulars: agonistic activity in vitro; read-out: S1P-1 GTPyS/EC50. The protocol: (§1) A. In Vitro: GPCR Activation Assay Measuring GTP [γ-^35S] Binding to Membranes Prepared from CHO Cells Expressing Human EDG Receptors
S1P1 (EDG-1) GTP [γ-^35S] assay: Homogenized membranes are prepared from CHO cell clones stably expressing a human EDG-1 N-terminal c-myc tag. Cells are grown in large culture dishes (500 cm^2) to a confluence between 80 and 90%. The culture medium is removed and 20 mL ice-cold buffer A (10 mM HEPES, pH 7.4, 10 mM EDTA, complete protease inhibitor cocktail [1 tablet/50 mL]) added. The cells are harvested by scraping and the cell suspension centrifuged at 750×g for 10 min at 4° C. The pellet is resuspended in 10 mL ice-cold buffer B (20 mM HEPES, pH 7.4, 100 mM NaCl, 10 mM MgCl2, 1 mM EDTA). The cell suspension is homogenized on ice, using a Polytron homogenizer at 25000 rpm at three intervals of 20 seconds each. Then the homogenate is centrifuged at 26900×g for 30 min at 4° C. and the membrane protein pellet resuspended by vortexing in cold buffer B. The protein concentration is determined using the Bio Rad Protein Assay and human IgG as standard. The volume of the membrane protein suspension is adjusted to a final concentration of about 2 mg protein/mL. The solution is then once again homogenized (Polytron) on ice at 25000 rpm for 20 seconds before being aliquoted and stored at −80° C.
(§2) Serial dilutions of compounds (stock in 10 mM DMSO) are prepared by first diluting the compounds in DMSO (1:10) followed by a 1:20 dilution into assay buffer (50 mM HEPES, pH 7.4, 5 mM MgCl2, 1 mM CaCl2, 1% fatty acid-free BSA). S1P (1 mM in DMSO/HCl) is diluted directly into assay buffer. The desired amount of membranes (1-5 μg/well) is diluted with assay buffer containing 10 μM GDP, 25 μg/mL Saponin and 5 mg/mL WGA-SPA beads. 9 μL of pre-diluted compound is placed into the bottom of a 96-well deep-well plate. 440 μL of the membrane-WGA-SPA bead slurry is added and the plate stirred for 15 minutes. Then twice 210 μL are transferred each into a 96-well Optiplate containing 15 μL GTP [γ-^35S] (4 nM in assay buffer). After incubation at room temperature for 120 minutes under constant shaking the plates are centrifuged for 10 minutes at 1000 g to pellet the membrane-SPA beads slurry. Then the plates are measured in a TOPcount NXT. Eight different concentrations of compound are used to generate a concentration response curve (using two data points per concentration) and the corresponding EC50 value using the curve-fitting tool of GraphPad Prism.

Test [2] deals with S1P5 receptor (Homo sapiens, UniProt Q9H228). Nature of the test: S1P5 GTP[γ-35S] binding assay, membranes of CHO cells. Format: biochemical. The conditions noted are these: agonistic activity in vitro; read-out: S1P-5 GTPyS/EC50. The protocol: as §1, §2
Chain of S1P5 receptor (Q9H228 whole entry): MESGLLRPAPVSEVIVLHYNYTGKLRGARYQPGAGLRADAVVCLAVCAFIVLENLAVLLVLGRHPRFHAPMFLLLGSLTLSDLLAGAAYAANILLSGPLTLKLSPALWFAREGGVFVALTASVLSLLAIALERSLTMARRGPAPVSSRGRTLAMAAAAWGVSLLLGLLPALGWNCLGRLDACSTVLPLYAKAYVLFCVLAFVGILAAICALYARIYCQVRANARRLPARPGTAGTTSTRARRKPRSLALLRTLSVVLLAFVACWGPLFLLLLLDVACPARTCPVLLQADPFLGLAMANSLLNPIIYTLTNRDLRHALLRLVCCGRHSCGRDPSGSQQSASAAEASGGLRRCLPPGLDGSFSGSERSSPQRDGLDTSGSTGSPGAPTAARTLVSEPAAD
For each membrane preparation, titration experiments are first run with S1P control to determine the optimal amount of membranes to be added per assay well.

In test [3] the test system is circulating lymphocytes. The test can be described thus: Blood lymphocyte depletion in rats. Format: in vivo, Lewis rats. The conditions noted are these: for recovery of lymphocyte counts back to baseline: within 48 hours. On the procedure:
Measurement of circulating lymphocytes: Lewis rats (male, 6-12 weeks old) are orally administered with 0.1 to 5 mg/kg of compound (4 ml/kg vehicle, e.g. in max. 2% DMSO/max. 2% PEG200/water or 0.5% methyl cellulose). A vehicle group is included as negative control.
Blood is collected from the sublingual vein at baseline (0 h) and 2, 6, 24 and 48 hours after administration under short isoflurane anesthesia. Whole blood samples are subjected to hematology analysis. Peripheral lymphocyte counts are determined using an automated analyzer. Two to four rats are used to assess the lymphocyte counts of each dose.

For test [4], the system named is experimental autoimmune encephalomyelitis (EAE). Nature of the test: Chronic-progressive EAE model (therapeutic treatment). The class given is in vivo, DA rat. Particulars: therapeutic treatment after peak of disease; from day 15 post-immunization (after 4 days of treatment) until end of experiment; scale 0-5.
Test [5] has the same test system. Nature of the test: Acute EAE model. The class given is in vivo, Lewis rats. The conditions noted are these: 10 mg/kg b.i.d., oral gavage, days 0-13.
For test [6], the system named is experimental autoimmune uveitis (EAU). Nature of the test: S-antigen-induced experimental autoimmune uveitis (EAU). Format: in vivo, Lewis rats. The conditions noted are these: 3 and 10 mg/kg bid p.o., day 7 to day 18 post-immunization.

The structures appear in SMILES notation.

T1 sequence (P21453 whole entry): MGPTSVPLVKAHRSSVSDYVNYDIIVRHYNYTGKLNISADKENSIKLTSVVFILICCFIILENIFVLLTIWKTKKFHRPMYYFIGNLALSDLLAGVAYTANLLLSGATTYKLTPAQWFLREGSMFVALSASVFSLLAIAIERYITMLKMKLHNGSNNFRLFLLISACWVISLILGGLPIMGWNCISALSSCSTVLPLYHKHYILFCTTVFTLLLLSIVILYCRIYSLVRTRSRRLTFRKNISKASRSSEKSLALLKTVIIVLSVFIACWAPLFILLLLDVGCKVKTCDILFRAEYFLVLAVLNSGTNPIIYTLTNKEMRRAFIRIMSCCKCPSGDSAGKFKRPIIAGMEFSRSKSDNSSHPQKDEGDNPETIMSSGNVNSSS

In the case of `CC(C)Oc1ccc(-c2nc(-c3ccc(C4(O)COC4)cc3)no2)cc1C#N` [Example 2], the EC50 in test [1] amounted to 6 nM; in test [2] it was 30 nM.

With `CC(C)Oc1ccc(-c2nc(-c3ccc(C4(N)COC4)cc3)no2)cc1C#N` [Example 1, 5-{3-[4-(3-Amino-oxetan-3-yl)-phenyl]-[1,2,4]oxadiazol-5-yl}-2-iso-propoxy-benzonitrile], the “recovery of lymphocyte counts back to baseline” value in test [3] (1 mg/kg p.o.) was “fully”; in test [3] (5 mg/kg p.o.) it was “partially recover back to baseline”. Besides, in test [3] (0.1 to 5 mg/kg p.o., Lewis rats), the peripheral lymphocyte counts entry is reported as “dose-dependent reduction”. Further, the “time of maximal reduction of peripheral lymphocyte counts post-administration” value in test [3] (1 or 5 mg/kg p.o., Lewis rats) turned out to be 6 h. For the same molecule, the EC50 in test [1] came to 10 nM; in test [2], 90 nM. The “clinical scores in chronic-progressive EAE” value in test [4] is recorded as < 0.5. In test [5], the “effect on disease symptoms in acute EAE” value is reported as “prevention of disease symptoms”. Besides, the “protection from autoimmune uveitis” value in test [6] is reported as “dose-dependent protection from autoimmune uveitis”.

As to `CCOc1ccc(-c2nc(-c3ccc(C4(N)COC4)cc3)no2)cc1C#N` [Example 4], the EC50 in test [1] came out at 17 nM; in test [2], 300 nM.

On to `CCOc1ccc(-c2nc(-c3ccc(C4(O)COC4)cc3)no2)cc1C#N` [Example 6, 5-{3-[4-(3-Hydroxy-oxetan-3-yl)-phenyl]-[1,2,4]oxadiazol-5-yl}-2-ethoxy-benzonitrile], for which the EC50 in test [1] turned out to be 29 nM; in test [2], 280 nM.

Regarding `CC(=O)c1cc(-c2nc(-c3ccc(C4(N)COC4)cc3)no2)ccc1OC(C)C` [Example 3], the results for the EC50 in test [1] and in test [2] were 13 nM and 180 nM, respectively.

With `CC(=O)c1cc(-c2nc(-c3ccc(C4(O)COC4)cc3)no2)ccc1OC(C)C` [Example 5], the EC50 stood at 25 nM in test [1] and 310 nM in test [2].

The values above are taken from US20100261766A1, “Phenyl-Oxetanyl-Derivatives” (priority 2007, published 2010).
